Measured values taken from patent US8354416B2 (Glaxo Group Limited, priority 2005, dated 2013).

test system: influx of neutrophils to the lung in LPS-challenged rats; experiment: Rat LPS neutrophilia model; type: in vivo; details: intratracheal, LPS aerosol 100 ug/ml, in at least one of the range of conditions tested, significance p<0.05
Experimental: Rat LPS Neutrophilia Model
The effect of compounds on the influx of neutrophils to the lung in LPS-challenged rats is evaluated as follows. The test compound is suspended in one of the following solutions: 0.5% tween 80/PBS, 0.5% tween 80/saline, 10% EtOH/saline (with pH adjusted to 2.0, or 8.0 with HCl, or unadjusted), Saline (pH 2.0, 6.5 or 8.0, 0.5% Tragacanth, 1% DMSO/20% Encapsin/Saline, or acidified 5% Tragacanth. The suspension process may be aided by the use of a glass homogenizer. For intratracheal administration, the animals are anesthetized with inhaled isoflurane and placed in a supine position, the trachea is intubated with a steel gavage needle (1.5 inch, 22 gauge, small ball) or a Penn-Century Microsprayer Aerosolizer (model IA-1B) and 200 ul of dosing solution is delivered. The animals are visually monitored during the recovery process, which typically occurs within two minutes. It is noted that the test compounds may be alternatively administered via the microsprayer in a dry powder blend with a suitable excipient, such as lactose.
Rats treated with compound or vehicle (15 min-24 hours pretreatment) are exposed to an LPS aerosol (100 ug/ml) for 15 min. Four hours later the rats are euthanized with pentobarbital (100 mg/kg, i.p.) and the airways are lavaged with 5 washes of 5 ml of phosphate buffered saline. The harvested cells are stained (Diffquick) and counted to determine total and differential cell data. […] Inhibition of neutrophil levels relative to no compound controls is calculated based on the differential counts.
The data is obtained as % inhibition using a particular concentration and pretreat time.

SMILES | inhibition of neutrophilia (neutrophil levels in airway lavage relative to no compound controls)
CNCCNc1nc(-c2cc(C(=O)NC3CCCC3)ccc2C)c2ccc(=O)n(-c3c(F)cccc3F)c2n1 [Example 58, N-cyclopentyl-3-(8-(2,6-difluorophenyl)-2-{[2-(methylamino)ethyl]amino}-7-oxo-7,8-dihydropyrido[2,3-d]pyrimidin-4-yl)-4-methylbenzamide] | statistically significant inhibition of neutrophilia
CNCCNc1nc(-c2cc(C(=O)NCc3ccccc3)ccc2C)c2ccc(=O)n(-c3c(F)cccc3F)c2n1 [Example 59, 3-(8-(2,6-difluorophenyl)-2-{[2-(methylamino)ethyl]amino}-7-oxo-7,8-dihydropyrido[2,3-d]pyrimidin-4-yl)-4-methyl-N-(phenylmethyl)benzamide] | statistically significant inhibition of neutrophilia
CNCCNc1nc(-c2cc(C(=O)Nc3ccc(F)cc3)ccc2C)c2ccc(=O)n(-c3c(F)cccc3F)c2n1 [Example 60, 3-(8-(2,6-difluorophenyl)-2-{[2-(methylamino)ethyl]amino}-7-oxo-7,8-dihydropyrido[2,3-d]pyrimidin-4-yl)-N-(4-fluorophenyl)-4-methylbenzamide] | statistically significant inhibition of neutrophilia
CNCCNc1nc(-c2cc(C(=O)Nc3nccs3)ccc2C)c2ccc(=O)n(-c3c(F)cccc3F)c2n1 [Example 61, 3-(8-(2,6-difluorophenyl)-2-{[2-(methylamino)ethyl]amino}-7-oxo-7,8-dihydropyrido[2,3-d]pyrimidin-4-yl)-4-methyl-N-1,3-thiazol-2-ylbenzamide] | statistically significant inhibition of neutrophilia
Cc1ccc(C(=O)Nc2ccc(F)cc2)cc1-c1nc(NC2CC(C)(C)NC(C)(C)C2)nc2c1ccc(=O)n2-c1c(F)cccc1F [Example 66, 3-{8-(2,6-difluorophenyl)-7-oxo-2-[(2,2,6,6-tetramethyl-4-piperidinyl)amino]-7,8-dihydropyrido[2,3-d]pyrimidin-4-yl}-N-(4-fluorophenyl)-4-methylbenzamide] | statistically significant inhibition of neutrophilia
Cc1ccc(C(=O)Nc2nccs2)cc1-c1nc(NC2CC(C)(C)NC(C)(C)C2)nc2c1ccc(=O)n2-c1c(F)cccc1F [Example 67, 3-{8-(2,6-difluorophenyl)-7-oxo-2-[(2,2,6,6-tetramethyl-4-piperidinyl)amino]-7,8-dihydropyrido[2,3-d]pyrimidin-4-yl}-4-methyl-N-1,3-thiazol-2-ylbenzamide] | statistically nonsignificant inhibition of neutrophilia
Cc1ccc(C(=O)NC(C)C)cc1-c1nc(N2CCC(N)CC2)nc2c1ccc(=O)n2-c1c(F)cccc1F [Example 68, 3-[2-(4-amino-1-piperidinyl)-8-(2,6-difluorophenyl)-7-oxo-7,8-dihydropyrido[2,3-d]pyrimidin-4-yl]-4-methyl-N-(1-methylethyl)benzamide] | statistically significant inhibition of neutrophilia
CCCNC(=O)c1ccc(C)c(-c2nc(N3CCC(N)CC3)nc3c2ccc(=O)n3-c2c(F)cccc2F)c1 [Example 69, 3-[2-(4-amino-1-piperidinyl)-8-(2,6-difluorophenyl)-7-oxo-7,8-dihydropyrido[2,3-d]pyrimidin-4-yl]-4-methyl-N-propylbenzamide] | statistically significant inhibition of neutrophilia
Cc1ccc(C(=O)NC2CCCC2)cc1-c1nc(N2CCC(N)CC2)nc2c1ccc(=O)n2-c1c(F)cccc1F [Example 70, 3-[2-(4-amino-1-piperidinyl)-8-(2,6-difluorophenyl)-7-oxo-7,8-dihydropyrido[2,3-d]pyrimidin-4-yl]-N-cyclopentyl-4-methylbenzamide] | statistically nonsignificant inhibition of neutrophilia
Cc1ccc(C(=O)NCc2ccccc2)cc1-c1nc(N2CCC(N)CC2)nc2c1ccc(=O)n2-c1c(F)cccc1F [Example 71, 3-[2-(4-amino-1-piperidinyl)-8-(2,6-difluorophenyl)-7-oxo-7,8-dihydropyrido[2,3-d]pyrimidin-4-yl]-4-methyl-N-(phenylmethyl)benzamide] | statistically nonsignificant inhibition of neutrophilia
Cc1ccc(C(=O)Nc2ccc(F)cc2)cc1-c1nc(N2CCC(N)CC2)nc2c1ccc(=O)n2-c1c(F)cccc1F [Example 72, 3-[2-(4-amino-1-piperidinyl)-8-(2,6-difluorophenyl)-7-oxo-7,8-dihydropyrido[2,3-d]pyrimidin-4-yl]-N-(4-fluorophenyl)-4-methylbenzamide] | statistically significant inhibition of neutrophilia
Cc1ccc(C(=O)Nc2nccs2)cc1-c1nc(N2CCC(N)CC2)nc2c1ccc(=O)n2-c1c(F)cccc1F [Example 73, 3-[2-(4-amino-1-piperidinyl)-8-(2,6-difluorophenyl)-7-oxo-7,8-dihydropyrido[2,3-d]pyrimidin-4-yl]-4-methyl-N-1,3-thiazol-2-ylbenzamide] | statistically significant inhibition of neutrophilia
Cc1ccc(C(=O)NC2CCCC2)cc1-c1nc(NCc2ncc[nH]2)nc2c1ccc(=O)n2-c1c(F)cccc1F [Example 76, N-cyclopentyl-3-{8-(2,6-difluorophenyl)-2-[(1H-imidazol-2-ylmethyl)amino]-7-oxo-7,8-dihydropyrido[2,3-d]pyrimidin-4-yl}-4-methylbenzamide] | statistically nonsignificant inhibition of neutrophilia
Cc1ccc(C(=O)NCc2ccccc2)cc1-c1nc(NCc2ncc[nH]2)nc2c1ccc(=O)n2-c1c(F)cccc1F [Example 77, 3-{8-(2,6-difluorophenyl)-2-[(1H-imidazol-2-ylmethyl)amino]-7-oxo-7,8-dihydropyrido[2,3-d]pyrimidin-4-yl}-4-methyl-N-(phenylmethyl)benzamide] | statistically significant inhibition of neutrophilia
Cc1ccc(C(=O)Nc2ccc(F)cc2)cc1-c1nc(NCc2ncc[nH]2)nc2c1ccc(=O)n2-c1c(F)cccc1F [Example 78, 3-{8-(2,6-difluorophenyl)-2-[(1H-imidazol-2-ylmethyl)amino]-7-oxo-7,8-dihydropyrido[2,3-d]pyrimidin-4-yl}-N-(4-fluorophenyl)-4-methylbenzamide] | statistically significant inhibition of neutrophilia
Cc1ccc(C(=O)Nc2ccc(F)cc2)cc1-c1nc(NCCN(C)C(=O)OC(C)(C)C)nc2c1ccc(=O)n2-c1c(F)cccc1F [Example 95, 1,1-dimethylethyl (2-{[8-(2,6-difluorophenyl)-4-(5-{[(4-fluorophenyl)amino]carbonyl}-2-methylphenyl)-7-oxo-7,8-dihydropyrido[2,3-d]pyrimidin-2-yl]amino}ethyl)methylcarbamate] | statistically nonsignificant inhibition of neutrophilia
Cc1ccc(C(=O)Nc2ccc(F)cc2)cc1-c1nc(N(C)CCN(C)C)nc2c1ccc(=O)n2-c1c(F)cccc1F [Example 99, 3-{8-(2,6-difluorophenyl)-2-[[2-(dimethylamino)ethyl](methyl)amino]-7-oxo-7,8-dihydropyrido[2,3-d]pyrimidin-4-yl}-N-(4-fluorophenyl)-4-methylbenzamide] | statistically nonsignificant inhibition of neutrophilia
Cc1ccc(C(=O)Nc2nccs2)cc1-c1nc(NCCCNC(C)C)nc2c1ccc(=O)n2-c1c(F)cccc1F [Example 101, 3-[8-(2,6-difluorophenyl)-2-({3-[(1-methylethyl)amino]propyl}amino)-7-oxo-7,8-dihydropyrido[2,3-d]pyrimidin-4-yl]-4-methyl-N-1,3-thiazol-2-ylbenzamide] | statistically significant inhibition of neutrophilia
Cc1ccc(C(=O)Nc2nccs2)cc1-c1nc(NCCCNC(C)(C)C)nc2c1ccc(=O)n2-c1c(F)cccc1F [Example 102, 3-[8-(2,6-difluorophenyl)-2-({3-[(1,1-dimethylethyl)amino]propyl}amino)-7-oxo-7,8-dihydropyrido[2,3-d]pyrimidin-4-yl]-4-methyl-N-1,3-thiazol-2-ylbenzamide] | statistically nonsignificant inhibition of neutrophilia
Cc1ccc(C(=O)Nc2nccs2)cc1-c1nc(NCCNC(C)C)nc2c1ccc(=O)n2-c1c(F)cccc1F [Example 103, 3-[8-(2,6-difluorophenyl)-2-({2-[(1-methylethyl)amino]ethyl}amino)-7-oxo-7,8-dihydropyrido[2,3-d]pyrimidin-4-yl]-4-methyl-N-1,3-thiazol-2-ylbenzamide] | statistically significant inhibition of neutrophilia
